The values that follow come from US8492368B2 (priority 2011, dated 2013).

For data set [1], the system named is rats suffering from TBI. Particulars: 16 mg/kg, 72 hours post-injury, moderate to severe brain injury, FIG. 1, p<0.05; cited from earlier work.
Data set [2] has as its system traumatic brain injury. Particulars: cited from earlier work; for factors of cell death, brain swelling and inflammation: TBI.
For data set [3], the system named is P-glycoprotein (PGP). As to the kind of experiment: P-glycoprotein protein abundance in penumbral region of injured brain, FIG. 6. Format: in vivo, rodents. The following applies: 72 hours post-injury, vs vehicle and sham, p<0.05, FIG. 6.
Data set [4] deals with rats that have suffered a concussion (mTBI). Description: Morris Water Maze latency to platform in mTBI (concussion) model, FIG. 8. It is filed as in vivo. Particulars: vs vehicle-injured rats, p<0.05.
Data set [5] concerns severe TBI patients. Particulars: six months; cited from earlier work.
In data set [6] the test system is male reproductive function. Particulars: males; cited from earlier work.
Data set [7] relates to glutathione reductase. The following applies: 72 hours post-injury, compared to all other groups, FIG. 2, p<0.01; cited from earlier work.
In data set [8] the target is T1, progesterone receptor (PR) (Homo sapiens, UniProt P06401).
T1 sequence (P06401 1-933): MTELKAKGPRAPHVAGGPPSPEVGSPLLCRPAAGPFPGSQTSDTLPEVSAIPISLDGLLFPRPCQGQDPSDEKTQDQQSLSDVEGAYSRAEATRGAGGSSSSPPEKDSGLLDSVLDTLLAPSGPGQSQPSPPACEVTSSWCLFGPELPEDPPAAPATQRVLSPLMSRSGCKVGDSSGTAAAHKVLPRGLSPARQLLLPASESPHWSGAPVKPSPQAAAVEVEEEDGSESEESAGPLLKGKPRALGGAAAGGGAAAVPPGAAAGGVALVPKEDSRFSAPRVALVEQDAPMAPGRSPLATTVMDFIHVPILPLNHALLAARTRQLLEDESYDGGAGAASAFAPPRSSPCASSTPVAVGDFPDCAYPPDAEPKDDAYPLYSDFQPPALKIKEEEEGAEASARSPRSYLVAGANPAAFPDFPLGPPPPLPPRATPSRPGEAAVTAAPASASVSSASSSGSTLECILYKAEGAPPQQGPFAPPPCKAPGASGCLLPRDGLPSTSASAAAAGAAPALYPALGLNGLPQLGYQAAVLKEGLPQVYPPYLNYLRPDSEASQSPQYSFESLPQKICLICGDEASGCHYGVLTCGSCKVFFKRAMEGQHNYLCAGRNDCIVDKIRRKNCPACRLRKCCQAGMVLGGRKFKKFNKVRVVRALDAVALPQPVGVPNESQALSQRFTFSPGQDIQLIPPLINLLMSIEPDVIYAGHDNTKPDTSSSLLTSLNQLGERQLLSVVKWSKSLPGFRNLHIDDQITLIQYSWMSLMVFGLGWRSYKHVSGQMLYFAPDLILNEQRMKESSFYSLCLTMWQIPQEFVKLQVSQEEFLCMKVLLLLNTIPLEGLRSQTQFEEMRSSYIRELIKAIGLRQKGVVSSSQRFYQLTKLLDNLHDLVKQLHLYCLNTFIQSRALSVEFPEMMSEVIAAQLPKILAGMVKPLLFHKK
The following applies: cited from earlier work.

On to `CC(=O)[C@H]1CC[C@H]2[C@@H]3CC[C@H]4C[C@H](O)CC[C@]4(C)[C@H]3CC[C@]12C` [ALLO, allopregnanolone], for which the “brain water content (measure of edema)” value in data set [1] was “normalizes brain water content”. Also, the “factors of cell death (caspase-3) and gliosis (GFAP)” value in data set [2] (following injury) is “decreased”.

`CC(=O)[C@H]1CC[C@H]2[C@@H]3CCC4=CC(=O)CC[C@]4(C)[C@H]3CC[C@]12C` [Prog, progesterone]: the “protein abundance of P-glycoprotein (PGP)” value in data set [3] was “increase”. Besides, the “latency to platform, post-acute administration” value in data set [4] (15 minutes post mTBI (1 hour post)) was “decreases latency to platform”. Besides, the “latency to platform, prophylactic administration” value in data set [4] (15 minutes prior to mTBI (1 hour prior)) is “decreases latency to platform”. In addition, the “brain water content (measure of edema)” value in data set [1] was “normalizes brain water content”. The neurological outcomes long-term in data set [5] is on record as “better neurological outcomes”. For the same compound, in data set [6], the “conversion of testosterone to dihydrotestosterone” value is on record as “inhibits”, the “size of reproductive organs” value is on record as “reduces” and the spermatogenesis entry is “suppresses”. Also, the “factors of cell death, brain swelling and inflammation” value in data set [2] is listed as “equivalently reduce”. The edema result in data set [2] (both rodent sexes following injury) is recorded as “effectively attenuates”. Also, the “genes promoting the inflammatory cascade: Bcl-2, IL-1β and Cxcl-10” value in data set [2] (following TBI, previous study) is recorded as “down-regulated”. Further, in data set [2] (following injury), the “factors of cell death (caspase-3) and gliosis (GFAP)” value is given as “decreased”; the “inflammatory factors (TNF-α and IL-1β)” value is given as “inhibiting”. In data set [2] (rats following injury), the “Neurological Severity Score (motor and cognitive functioning)” value is “significant improvements”.

With `CC(=O)[C@@H]1CC[C@@H]2[C@H]3CCC4=CC(=O)CC[C@@]4(C)[C@@H]3CC[C@]21C` [ent-Prog, ent-progesterone], the “protein abundance of P-glycoprotein (PGP)” value in data set [3] is given as “increase”. Also, in data set [1], the “brain water content (measure of edema)” value is “normalizes brain water content”. Moreover, in data set [7], the “anti-oxidant activity of glutathione reductase” value is “significantly increases”. Besides, the “activation of PR-mediated transcription” value in data set [8] was “does not activate”. In addition, in data set [2], the “factors of cell death, brain swelling and inflammation” value is listed as “equivalently reduce”.
